Source: patent US20130261077A1 (priority 2012, published 2013)

Biological target: T1, FimH-CRD (Escherichia coli, UniProt P08191)
T1 construct: The first 177 amino acids of the FimH protein; thrombin tag (printed as 'fusion protein with thrombin') (cleaved yes); made in house; host or cells: bacteria (pET21b plasmid)
Test: Competitive binding assay by fluorescence polarization, assay 1 (compounds prepared by manual serial dilution)
Summary of the method: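 Compounds at 0.4 nM–75 μM final (12 points, 3-fold steps, duplicate) compete with a 5 nM Alexa 647 mannoside probe for 60 nM FimH-CRD; 5 h room-temperature incubation in pH 7.0 Tris buffer with 2.5% DMSO, FP read-out, Kd from fitted curves. Assay 1 uses manual dilution, assay 2 robot-made frozen/thawed plates.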

T1 sequence (P08191 22-177): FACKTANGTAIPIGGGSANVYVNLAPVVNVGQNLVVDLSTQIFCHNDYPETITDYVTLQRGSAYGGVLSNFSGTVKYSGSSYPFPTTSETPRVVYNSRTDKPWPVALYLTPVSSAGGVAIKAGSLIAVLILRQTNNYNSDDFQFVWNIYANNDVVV

Work on `OC[C@H]1O[C@H](O[C@@H]2[C@H](O)[C@@H](c3cccc(Oc4ccccc4)c3)O[C@H](CO)[C@H]2O)[C@@H](O)[C@@H](O)[C@@H]1O` [Compound 271, (2R,3S,4S,5S,6R)-2-[(2R,3R,4R,5R,6R)-3,5-Dihydroxy-2-(hydroxymethyl)-6-(3-phenoxyphenyl)tetrahydropyran-4-yl]oxy-6-(hydroxymethyl)tetrahydropyran-3,4,5-triol] yielded an IC50 of 27 nM and a Kd of 14.7 ± 7 nM.

Work on `Cc1nnc(-c2ccc(Oc3cccc([C@H]4O[C@H](CO)[C@@H](O)[C@H](O[C@H]5O[C@H](CO)[C@@H](O)[C@H](O)[C@@H]5O)[C@@H]4O)c3)cc2)o1` [Compound 272, (2R,3S,4S,5S,6R)-2-[(2R,3R,4R,5R,6R)-3,5-Dihydroxy-2-(hydroxymethyl)-6-[3-[4-(5-methyl-1,3,4-oxadiazol-2-yl)phenoxy]phenyl]tetrahydropyran-4-yl]oxy-6-(hydroxymethyl)tetrahydropyran-3,4,5-triol] yielded an IC50 of 46 nM and a Kd of 12.7 ± 7.7 nM.

With `Cc1cc(C)cc(Oc2cccc([C@H]3O[C@H](CO)[C@@H](O)[C@H](O[C@H]4O[C@H](CO)[C@@H](O)[C@H](O)[C@@H]4O)[C@@H]3O)c2)c1` [Compound 274, (2R,3S,4S,5S,6R)-2-[(2R,3R,4R,5R,6R)-2-[3-(3,5-Dimethylphenoxy)phenyl]-3,5-dihydroxy-6-(hydroxymethyl)tetrahydropyran-4-yl]oxy-6-(hydroxymethyl)tetrahydropyran-3,4,5-triol] the IC50 was 34 nM and the Kd was 43.1 ± 53 nM.

`CNC(=O)c1ccc(-c2cccc([C@H]3O[C@H](CO)[C@@H](O)[C@H](O[C@H]4O[C@H](CO)[C@@H](O)[C@H](O)[C@@H]4O)[C@@H]3O)c2)cc1` [Compound 275, 4-[3-[(2R,3R,4R,5R,6R)-3,5-Dihydroxy-6-(hydroxymethyl)-4-[(2R,3S,4S,5S,6R)-3,4,5-trihydroxy-6-(hydroxymethyl)tetrahydropyran-2-yl]oxy-tetrahydropyran-2-yl]phenyl]-N-methyl-benzamide] was tested, and the IC50 was 28 nM and the Kd was 26.8 ± 15.4 nM.

For `CS(=O)(=O)c1ccc(-c2cccc([C@H]3O[C@H](CO)[C@@H](O)[C@H](O[C@H]4O[C@H](CO)[C@@H](O)[C@H](O)[C@@H]4O)[C@@H]3O)c2)cc1` [Compound 276, (2R,3S,4S,5S,6R)-2-[(2R,3R,4R,5R,6R)-3,5-dihydroxy-2-(hydroxymethyl)-6-[3-(4-methylsulfonylphenyl)phenyl]tetrahydropyran-4-yl]oxy-6-(hydroxymethyl)tetrahydropyran-3,4,5-triol], the IC50 was 49 nM and the Kd was 11.1 ± 3.4 nM.

Compound `CNC(=O)c1cc(C(=O)NC)cc(-c2cccc([C@H]3O[C@H](CO)[C@@H](O)[C@H](O[C@H]4O[C@H](CO)[C@@H](O)[C@H](O)[C@@H]4O)[C@@H]3O)c2)c1` [Compound 277, 5-[3-[(2R,3R,4R,5R,6R)-3,5-Dihydroxy-6-(hydroxymethyl)-4-[(2R,3S,4S,5S,6R)-3,4,5-trihydroxy-6-(hydroxymethyl)tetrahydropyran-2-yl]oxy-tetrahydropyran-2-yl]phenyl]-N1,N3-dimethyl-benzene-1,3-dicarboxamide] has an IC50 of 47 nM and a Kd of 10.7 ± 3.9 nM.

`OC[C@H]1O[C@H](O[C@@H]2[C@H](O)[C@@H](c3cccc(C4CCCCC4)c3)O[C@H](CO)[C@H]2O)[C@@H](O)[C@@H](O)[C@@H]1O` [Compound 278, (2R,3S,4S,5S,6R)-2-[(2R,3R,4R,5R,6R)-2-(3-Cyclohexylphenyl)-3,5-dihydroxy-6-(hydroxymethyl)tetrahydropyran-4-yl]oxy-6-(hydroxymethyl)tetrahydropyran-3,4,5-triol] gave an IC50 of 64 nM and a Kd of 12.7 ± 0.9 nM.

In the case of `OC[C@H]1O[C@H](O[C@@H]2[C@H](O)[C@@H](c3cccc(-c4cncnc4)c3)O[C@H](CO)[C@H]2O)[C@@H](O)[C@@H](O)[C@@H]1O` [Compound 279, (2R,3S,4S,5S,6R)-2-[(2R,3R,4R,5R,6R)-3,5-Dihydroxy-2-(hydroxymethyl)-6-(3-pyrimidin-5-ylphenyl)tetrahydropyran-4-yl]oxy-6-(hydroxymethyl)tetrahydropyran-3,4,5-triol], the IC50 is reported as 51 nM and the Kd is reported as 9.9 ± 1.1 nM.

With `Cn1cnc2ccc(-c3cccc([C@H]4O[C@H](CO)[C@@H](O)[C@H](O[C@H]5O[C@H](CO)[C@@H](O)[C@H](O)[C@@H]5O)[C@@H]4O)c3)cc21` [Compound 280, (2R,3S,4S,5S,6R)-2-[(2R,3R,4R,5R,6R)-3,5-Dihydroxy-2-(hydroxymethyl)-6-[3-(3-methylbenzimidazol-5-yl)phenyl]tetrahydropyran-4-yl]oxy-6-(hydroxymethyl)tetrahydropyran-3,4,5-triol (Trifluoroacetate Ion (1))] the IC50 was 59 nM and the Kd was 18.1 ± 7.1 nM.

In the case of `C=CC[C@H]1O[C@H](CO)[C@@H](O)[C@H](O[C@H]2O[C@H](CO)[C@@H](O)[C@H](O)[C@@H]2O)[C@@H]1O` [Compound 281, (2R,3S,4S,5S,6R)-2-[(2R,3R,4R,5R,6R)-2-Allyl-3,5-dihydroxy-6-(hydroxymethyl)tetrahydropyran-4-yl]oxy-6-(hydro I amymethyl)tetrahydropyran-3,4,5-triol], the IC50 is reported as 216 nM and the Kd is reported as 51.1 ± 7.6 nM.

With `OC[C@H]1O[C@H](O[C@H]2[C@H](O)[C@@H](CO)O[C@H](C/C=C/C3CCCCC3)[C@H]2O)[C@@H](O)[C@@H](O)[C@@H]1O` [Compound 282, (2R,3S,4S,5S,6R)-2-[(2R,3R,4R,5R,6R)-2-[(E)-3-Cyclohexylallyl]-3,5-dihydroxy-6-(hydroxymethyl)tetrahydropyran-4-yl]oxy-6-(hydroxymethyl)tetrahydropyran-3,4,5-triol] the IC50 was 212 nM and the Kd was 40.6 ± 0.03 nM.

Compound `COC(=O)c1ccc(CCC[C@H]2O[C@H](CO)[C@@H](O)[C@H](O[C@H]3O[C@H](CO)[C@@H](O)[C@H](O)[C@@H]3O)[C@@H]2O)cc1` [Compound 283, Methyl 4-[3-[(2R,3R,4R,5R,6R)-3,5-dihydroxy-6-(hydroxymethyl)-4-[(2R,3S,4S,5S,6R)-3,4,5-trihydroxy-6-(hydroxymethyl)tetrahydropyran-2-yl]oxy-tetrahydropyran-2-yl]propyl]benzoate] has an IC50 of 27 nM and a Kd of 10.8 ± 4.1 nM.

Work on `COc1cccc([C@H]2O[C@H](CO)[C@@H](O)[C@H](O[C@H]3O[C@H](CO)[C@@H](O)[C@H](O)[C@@H]3O)[C@@H]2O)c1` [Compound 284, (2R,3S,4S,5S,6R)-2-[(2R,3R,4R,5R,6R)-3,5-Dihydroxy-2-(hydroxymethyl)-6-(3-methoxyphenyl)tetrahydropyran-4-yl]oxy-6-(hydroxymethyl)tetrahydropyran-3,4,5-triol] yielded an IC50 of 49 nM and a Kd of 166 ± 96.5 nM.

`OC[C@H]1O[C@H](O[C@@H]2[C@H](O)[C@@H](c3cccc(OCC4CCCC4)c3)O[C@H](CO)[C@H]2O)[C@@H](O)[C@@H](O)[C@@H]1O` [Compound 285, (2R,3S,4S,5S,6R)-2-[(2R,3R,4R,5R,6R)-2-[3-(Cyclopentylmethoxy)phenyl]-3,5-dihydroxy-6-(hydroxymethyl)tetrahydropyran-4-yl]oxy-6-(hydroxymethyl)-tetrahydropyran-3,4,5-triol] showed an IC50 of 80 nM and a Kd of 14.7 ± 1.2 nM.

`OC[C@H]1O[C@H](O[C@@H]2[C@H](O)[C@@H](c3cccc(OCCF)c3)O[C@H](CO)[C@H]2O)[C@@H](O)[C@@H](O)[C@@H]1O` [Compound 287, (2R,3S,4S,5S,6R)-2-[(2R,3R,4R,5R,6R)-2-[3-(2-Fluoroethoxy)phenyl]-3,5-dihydroxy-6-(hydroxymethyl)tetrahydropyran-4-yl]oxy-6-(hydroxymethyl)tetrahydropyran-3,4,5-triol] was tested, and the IC50 was 107 nM and the Kd was 32.2 ± 8.5 nM.

With `CNC(=O)COc1cccc([C@H]2O[C@H](CO)[C@@H](O)[C@H](O[C@H]3O[C@H](CO)[C@@H](O)[C@H](O)[C@@H]3O)[C@@H]2O)c1` [Compound 288, 2-[3-[(2R,3R,4R,5R,6R)-3,5-dihydroxy-6-(hydroxymethyl)-4-[(2R,3S,4S,5S,6R)-3,4,5-trihydroxy-6-(hydroxymethyl)tetrahydropyran-2-yl]oxy-tetrahydropyran-2-yl]phenoxy]-N-methyl-acetamide] the IC50 was 46 nM and the Kd was 28.7 ± 25.6 nM.

Work on `COc1ccc([C@H]2O[C@H](CO)[C@@H](O)[C@H](O[C@H]3O[C@H](CO)[C@@H](O)[C@H](O)[C@@H]3O)[C@@H]2O)cc1O` [Compound 289, (2R,3S,4S,5S,6R)-2-[(2R,3R,4R,5R,6R)-3,5-Dihydroxy-2-(3-hydroxy-4-methoxy-phenyl)-6-(hydroxymethyl)tetrahydropyran-4-yl]oxy-6-(hydroxymethyl)tetrahydropyran-3,4,5-triol] yielded an IC50 of 175 nM and a Kd of 162 ± 241 nM.

`COc1ccc(C2O[C@H](CO)[C@@H](O)[C@H](O[C@H]3O[C@H](CO)[C@@H](O)[C@H](O)[C@@H]3O)[C@@H]2O)cc1Oc1ccc(NC(=O)C(C)C)cc1` (stereo partly shown) [Compound 290] showed an IC50 of 29 nM and a Kd of 11.9 ± 4.9 nM.

In the case of `CNC(=O)c1cccc(Oc2ccc([C@H]3O[C@H](CO)[C@@H](O)[C@H](O)[C@@H]3O)cc2)c1` [Compound 292, N-methyl-3-(4-((2R,3S,4R,5S,6R)-3,4,5-trihydroxy-6-(hydroxymethyl)tetrahydro-2H-pyran-2-yl)phenoxy)benzamide], the Kd is reported as 6 ± 0.4 nM.

Compound `COC(=O)Cc1cccc(Oc2ccc([C@H]3O[C@H](CO)[C@@H](O)[C@H](O)[C@@H]3O)cc2)c1` [Compound 293, methyl 2-(3-(4-((2R,3S,4R,5S,6R)-3,4,5-trihydroxy-6-(hydroxymethyl)tetrahydro-2H-pyran-2-yl)phenoxy)phenyl)acetate] has a Kd of 9 ± 2 nM.

`COC(=O)c1cccc(-c2ccc([C@H]3O[C@H](CO)[C@@H](O)[C@H](O)[C@@H]3O)cc2)c1` [Compound 294, methyl 4′-((2R,3S,4R,5S,6R)-3,4,5-trihydroxy-6-(hydroxymethyl)tetrahydro-2H-pyran-2-yl)-[1,1′-biphenyl]-3-carboxylate] was tested, and the Kd was 11 ± 3 nM.

Work on `CNC(=O)c1cccc(-c2ccc([C@H]3O[C@H](CO)[C@@H](O)[C@H](O)[C@@H]3O)cc2)c1` [Compound 295, N-methyl-4′-((2R,3S,4R,5S,6R)-3,4,5-trihydroxy-6-(hydroxymethyl)tetrahydro-2H-pyran-2-yl)-[1,1′-biphenyl]-3-carboxamide] yielded a Kd of 12 ± 3 nM.
